Like-named read-outs stand apart in the source and are kept apart here.
Legend:
[1] = biological target: Human norepinephrine transporter (NET) (Homo sapiens (Human), UniProt P23975); test: Binding Assay to Human Norepinephrine Transporter (NET); conditions: Table 2, dual compounds; human NET enriched membranes, 5 nM [3H]-Nisoxetin; read-out: Ki(nM) NET Hum
Experimental: Binding Assay to Human Norepinephrine Transporter (NET).
Human norepinephrine transporter (NET) enriched membranes (5 μg) were incubated with 5 nM of radiolabeled [3H]-Nisoxetin in assay buffer containing 50 mM Tris-HCl, 120 mM NaCl, 5 mM KCl, pH 7.4.
NSB (non specific binding) was measured by adding 10 μM desipramine. The binding of the test compound was measured in five different concentrations. After 60 min incubation at 4° C., binding reaction was terminated by filtering through Multiscreen GF/C (Millipore) presoaked in 0.5% polyethyleneimine in Vacuum Manifold Station, followed by 3 washes with ice-cold filtration buffer containing 50 mM Tris-HCl, 0.9% NaCl, pH 7.4.
Filter plates were dried at 60° C. for 1 hour and 30 μl of scintillation cocktail were added to each well before radioactivity reading.

[2] = biological target: Human α2δ-1 subunit of Cav2.2 calcium channel (Homo sapiens (Human), UniProt P54289); test: Binding Assay to Human α2δ-1 Subunit of Cav2.2 Calcium Channel; conditions: human α2δ-1 enriched membranes, 15 nM [3H]-Gabapentin, read-out: Ki(nM) alpha2delta Hum
Sequence of Human α2δ-1 subunit of Cav2.2 calcium channel (P54289 25-1103): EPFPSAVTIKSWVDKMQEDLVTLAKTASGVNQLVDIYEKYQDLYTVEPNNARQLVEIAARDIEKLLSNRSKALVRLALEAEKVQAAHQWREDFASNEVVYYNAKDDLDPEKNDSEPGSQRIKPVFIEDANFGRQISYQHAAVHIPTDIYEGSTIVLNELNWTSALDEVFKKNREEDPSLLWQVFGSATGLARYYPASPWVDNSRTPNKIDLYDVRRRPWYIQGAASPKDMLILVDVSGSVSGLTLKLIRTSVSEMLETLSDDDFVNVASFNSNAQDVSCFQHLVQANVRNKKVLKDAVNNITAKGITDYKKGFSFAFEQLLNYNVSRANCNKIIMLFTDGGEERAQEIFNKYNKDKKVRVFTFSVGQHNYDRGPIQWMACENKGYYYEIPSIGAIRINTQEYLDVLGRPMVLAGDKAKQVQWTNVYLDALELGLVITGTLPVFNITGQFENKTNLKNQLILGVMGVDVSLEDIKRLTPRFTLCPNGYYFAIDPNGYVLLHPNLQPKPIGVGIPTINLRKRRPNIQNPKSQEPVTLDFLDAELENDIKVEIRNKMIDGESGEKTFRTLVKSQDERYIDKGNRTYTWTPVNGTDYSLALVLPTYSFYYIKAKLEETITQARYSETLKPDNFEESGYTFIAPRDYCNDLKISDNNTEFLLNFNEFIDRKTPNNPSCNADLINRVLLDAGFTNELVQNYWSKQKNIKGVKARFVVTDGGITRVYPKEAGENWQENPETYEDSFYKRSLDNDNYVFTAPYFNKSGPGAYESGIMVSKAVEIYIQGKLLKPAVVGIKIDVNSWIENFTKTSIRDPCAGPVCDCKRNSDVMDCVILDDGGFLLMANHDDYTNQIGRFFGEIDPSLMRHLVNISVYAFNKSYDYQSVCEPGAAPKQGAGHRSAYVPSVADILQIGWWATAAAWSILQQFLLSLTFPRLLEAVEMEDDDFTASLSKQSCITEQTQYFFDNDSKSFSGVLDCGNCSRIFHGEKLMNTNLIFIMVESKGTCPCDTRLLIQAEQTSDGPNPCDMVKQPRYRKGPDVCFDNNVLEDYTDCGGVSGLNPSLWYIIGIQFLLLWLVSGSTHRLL
Outline: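 Radioligand filtration binding at the α2δ-1 subunit, test compound at five concentrations; nonspecific binding defined with 10 μM pregabalin. Incubated 60 min at 27 °C, stopped by GF/C filtration (0.5% PEI presoaked) with ice-cold 50 mM Tris-HCl pH 7.4 washes; bound radioactivity counted by scintillation.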

Sequence of Human norepinephrine transporter (NET) (P23975 whole entry): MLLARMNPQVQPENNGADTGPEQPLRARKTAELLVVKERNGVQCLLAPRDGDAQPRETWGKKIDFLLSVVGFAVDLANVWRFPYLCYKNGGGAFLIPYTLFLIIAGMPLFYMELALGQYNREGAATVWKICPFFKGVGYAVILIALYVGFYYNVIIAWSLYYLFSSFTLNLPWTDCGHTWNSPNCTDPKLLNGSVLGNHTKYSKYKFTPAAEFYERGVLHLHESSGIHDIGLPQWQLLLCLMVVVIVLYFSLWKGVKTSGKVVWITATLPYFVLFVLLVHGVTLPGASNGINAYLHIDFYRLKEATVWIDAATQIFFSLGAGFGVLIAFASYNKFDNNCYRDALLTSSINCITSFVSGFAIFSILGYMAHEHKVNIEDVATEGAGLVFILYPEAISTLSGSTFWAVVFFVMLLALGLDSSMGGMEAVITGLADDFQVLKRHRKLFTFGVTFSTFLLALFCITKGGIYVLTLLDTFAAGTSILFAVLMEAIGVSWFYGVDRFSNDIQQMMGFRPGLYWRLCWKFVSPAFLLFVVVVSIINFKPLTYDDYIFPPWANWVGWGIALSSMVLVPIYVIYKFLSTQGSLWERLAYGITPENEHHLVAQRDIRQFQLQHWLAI

Row | SMILES | Ki [1] | Ki ([2]; Table 1) | Ki ([2]; Table 2, dual compounds)
1 | CNCC[C@H](Oc1ccc(CN2CCCn3nc(OC)cc3C2=O)c(C)c1)c1cccs1 [Example 134, (S)-2-methoxy-5-(2-methyl-4-(3-(methylamino)-1-(thiophen-2-yl)propoxy)benzyl)-5,6,7,8-tetrahydro-4H-pyrazolo[1,5-a][1,4]diazepin-4-one] | < 100 nM | < 100 nM | < 100 nM
2 | CNCC[C@H](Oc1ccc(CN2CCN(C)c3ncccc3C2=O)c(F)c1)c1cccc(F)c1 [Example 136, (S)-4-(2-fluoro-4-(1-(3-fluorophenyl)-3-(methylamino)propoxy)benzyl)-1-methyl-1,2,3,4-tetrahydro-5H-pyrido[2,3-e][1,4]diazepin-5-one] | < 100 nM | < 100 nM | < 100 nM
3 | CNCC[C@H](Oc1ccc(CN2CCN(C)c3nc(N)ccc3C2=O)c(F)c1)c1ccccc1 [Example 137, (S)-8-amino-4-(2-fluoro-4-(3-(methylamino)-1-phenylpropoxy)benzyl)-1-methyl-1,2,3,4-tetrahydro-5H-pyrido[2,3-e][1,4]diazepin-5-one] | < 100 nM | 100 to 500 nM | 100 to 500 nM
4 | CNCC[C@H](Oc1ccc(CN2CCN(C)c3nc(N)ccc3C2=O)c(Cl)c1)c1ccccc1 [Example 138, (S)-8-amino-4-(2-chloro-4-(3-(methylamino)-1-phenylpropoxy)benzyl)-1-methyl-1,2,3,4-tetrahydro-5H-pyrido[2,3-e][1,4]diazepin-5-one] | < 100 nM | < 100 nM | < 100 nM
5 | CNCC[C@H](Oc1ccc(CN2CCCn3nc(C)cc3C2=O)c(F)c1)c1ccccc1 [Example 139, (S)-5-(2-fluoro-4-(3-(methylamino)-1-phenylpropoxy)benzyl)-2-methyl-5,6,7,8-tetrahydro-4H-pyrazolo[1,5-a][1,4]diazepin-4-one] | < 100 nM | 100 to 500 nM | 100 to 500 nM
6 | CNCC[C@H](Oc1ccc(CN2CCN(C)c3cnc(OC)cc3C2=O)c(F)c1)c1ccccc1 [Example 140, (S)-4-(2-fluoro-4-(3-(methylamino)-1-phenylpropoxy)benzyl)-7-methoxy-1-methyl-1,2,3,4-tetrahydro-5H-pyrido[3,4-e][1,4]diazepin-5-one] | < 100 nM | < 100 nM | < 100 nM
7 | CNCC[C@H](Oc1ccc(CN2CCN(C)c3ncccc3C2=O)c(Cl)c1)c1ccccc1 [Example 141, (S)-(2-chloro-4-(3-(methylamino)-1-phenylpropoxy)benzyl)-1-methyl-1,2,3,4-telrahydro-5H-pyrido[2,3-e][1,4]diazepin-5-one] | < 100 nM | < 100 nM | < 100 nM
8 | CNCC[C@H](Oc1ccc(CN2CCN(C)c3nc(O)ccc3C2=O)c(F)c1)c1ccccc1 [Example 142, (S)-4-(2-fluoro-4-(3-(methylamino)-1-phenylpropoxy)benzyl)-8-hydroxy-1-methyl-1,2,3,4-tetrahydro-5H-pyrido[2,3-e][1,4]diazepin-5-one] | < 100 nM | > 3000 nM | > 3000 nM
9 | CNCC[C@H](Oc1ccc(CN2CCN(C)c3ncc(F)cc3C2=O)c(F)c1)c1ccccc1 [Example 143, (S)-7-fluoro-4-(2-fluoro-4-(3-(methylamino)-1-phenylpropoxy)benzyl)-1-methyl-1,2,3,4-tetrahydro-5H-pyrido[2,3-e][1,4]diazepin-5-one] | < 100 nM | 100 to 500 nM | 100 to 500 nM
10 | CNCC[C@H](Oc1ccc(CN2CCCn3nc(OC)cc3C2=O)c(F)c1)c1ccccc1 [Example 144, (S)-5-(2-fluoro-4-(3-(methylamino)-1-phenylpropoxy)benzyl)-2-methoxy-5,6,7,8-tetrahydro-4H-pyrazolo[1,5-a][1,4]diazepin-4-one] | < 100 nM | 100 to 500 nM | 100 to 500 nM

The remaining lines, values ahead:

Row | Ki [1] | Ki ([2]; Table 1) | Ki ([2]; Table 2, dual compounds) | SMILES
11 | < 100 nM | 500 to 3000 nM | 500 to 3000 nM | CNCC[C@H](Oc1ccc(CN2CCCn3nccc3C2=O)c(F)c1)c1ccccc1 [Example 145, (S)-5-(2-fluoro-4-(3-(methylamino)-1-phenylpropoxy)benzyl)-5,6,7,8-tetrahydro-4H-pyrazolo[1,5-a][1,4]diazepin-4-one]
12 | < 100 nM | 100 to 500 nM | 100 to 500 nM | CCNc1ccc2c(n1)N(C)CCN(Cc1ccc(O[C@@H](CCNC)c3cccc(F)c3)cc1F)C2=O [Example 148, (S)-8-(ethylamino)-4-(2-fluoro-4-(1-(3-fluorophenyl)-3-(methylamino)propoxy)benzyl)-1-methyl-1,2,3,4-tetrahydro-5H-pyrido[2,3-e][1,4]diazepin-5-one]
13 | < 100 nM | < 100 nM | < 100 nM | CNCC[C@H](Oc1ccc(CN2CCN(C)c3ncccc3C2=O)c(Cl)c1)c1cccc(F)c1 [Example 149, (S)-4-(2-chloro-4-(1-(3-fluorophenyl)-3-(methylamino)propoxy)benzyl)-1-methyl-1,2,3,4-tetrahydro-5H-pyrido[2,3-e][1,4]diazepin-5-one]
14 | < 100 nM | 100 to 500 nM | 100 to 500 nM | CNCC[C@H](Oc1ccc(CN2CCN(C)c3ncccc3C2=O)cc1)c1cccc(F)c1 [Example 151, (S)-4-(4-(1-(3-fluorophenyl)-3-(methylamjno)propoxy)benzyl)-1-methyl-1,2,3,4-tetrahydro-5H-pyrido[2,3-e][1,4]diazepin-5-one]
15 | < 100 nM | < 100 nM | < 100 nM | CNCC[C@H](Oc1ccc(CN2CCN(C)c3ncccc3C2=O)c(F)c1)c1ccccc1F [Example 152, (S)-4-(2-fluoro-4-(1-(2-fluorophenyl)-3-(methylamino)propoxy)benzyl)-1-methyl-1,2,3,4-tetrahydro-5H-pyrido[2,3-e][1,4]diazepin-5-one]
16 | < 100 nM | < 100 nM | < 100 nM | CNCC[C@H](Oc1ccc(CN2CCN(C)c3nc(N)ccc3C2=O)c(F)c1)c1cccc(F)c1 [Example 153, (S)-8-amino-4-(2-fluoro-4-(1-(3-fluorophenyl)-3-(methylamino)propoxy)benzyl)-1-methyl-1,2,3,4-tetrahydro-5H-pyrido[2,3-e][1,4]diazepin-5-one]
